System: 556581-035-R-J1-PDC complex spheroid growth
Assay: Anticancer human tumor 556581-035-R-J1-PDC patient-derived ovarian carcinoma cell line growth inhibition [AhR]
Conditions: for IC50: curve of first compound; for viability, T/C: stronger effect = lower value
In short: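 Agents were dosed in half-log steps down from roughly clinical Cmax, or from 10 microM where Cmax was unknown, alone and with AhR antagonists. Read-out: percent test/control growth of tumor spheroids containing HUVEC and MSC stromal cells.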

[1] = second compound 0.1 µM, first compound 0.0316 µM
[2] = second compound 0.1 µM, first compound 0.1 µM
[3] = second compound 0.316 µM, first compound 0.0316 µM
[4] = second compound 0.316 µM, first compound 0.1 µM
[5] = second compound 1 µM, first compound 0.0316 µM
[6] = second compound 1 µM, first compound 0.1 µM
[7] = second compound 3.16 µM, first compound 0.0316 µM
[8] = second compound 3.16 µM, first compound 0.1 µM
[9] = second compound 10 µM, first compound 0.0316 µM
[10] = second compound 10 µM, first compound 0.1 µM
[11] = second compound 0.1 µM, first compound 0.316 µM
[12] = second compound 0.1 µM, first compound 1 µM
[13] = second compound 0.1 µM, first compound 3.16 µM
[14] = second compound 0.1 µM, first compound 10 µM
[15] = second compound 0.316 µM, first compound 0.316 µM
[16] = second compound 0.316 µM, first compound 1 µM
[17] = second compound 0.316 µM, first compound 3.16 µM
[18] = second compound 0.316 µM, first compound 10 µM
[19] = second compound 1 µM, first compound 0.316 µM
[20] = second compound 1 µM, first compound 1 µM
[21] = second compound 1 µM, first compound 3.16 µM
[22] = second compound 1 µM, first compound 10 µM
[23] = second compound 3.16 µM, first compound 0.316 µM
[24] = second compound 3.16 µM, first compound 1 µM
[25] = second compound 3.16 µM, first compound 3.16 µM
[26] = second compound 3.16 µM, first compound 10 µM
[27] = second compound 10 µM, first compound 0.316 µM
[28] = second compound 10 µM, first compound 1 µM
[29] = second compound 10 µM, first compound 3.16 µM
[30] = second compound 10 µM, first compound 10 µM
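For viability, T/C in this document: compound exposure lasted 7 days; 100% = DMSO vehicle control growth.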

Row | SMILES | IC50 (second compound 0.1 µM) [µM] | IC50 (second compound 0.316 µM) [µM] | IC50 (second compound 1 µM) [µM] | IC50 (second compound 3.16 µM) [µM] | IC50 (second compound 10 µM) [µM] | viability, T/C [1] [%] | viability, T/C [2] [%] | viability, T/C [3] [%] | viability, T/C [4] [%] | viability, T/C [5] [%] | viability, T/C [6] [%] | viability, T/C [7] [%] | viability, T/C [8] [%] | viability, T/C [9] [%] | viability, T/C [10] [%] | viability, T/C [11] [%] | viability, T/C [12] [%] | viability, T/C [13] [%] | viability, T/C [14] [%] | viability, T/C [15] [%] | other results
1 | CC[C@@]1(O)C(=O)OCc2c1cc1n(c2=O)Cc2cc3c(CN(C)C)c(O)ccc3nc2-1 + Cc1cncc(-c2nc(NCCc3c[nH]c4ccccc34)c3ncn(C(C)C)c3n2)c1 | > 0.1 | > 0.1 | > 0.1 | > 0.1 | > 0.1 | 85 | 64.3 | 90.2 | 62.3 | 83.4 | 57.9 | 81.3 | 62.6 | 76.9 | 67.2 |  |  |  |  |  | viability, T/C (second compound 0.1 µM, first compound 0.000316 µM): 114%; viability, T/C (second compound 0.1 µM, first compound 0.001 µM): 110%; viability, T/C (second compound 0.1 µM, first compound 0.00316 µM): 105%; viability, T/C (second compound 0.1 µM, first compound 0.01 µM): 97.6%; viability, T/C (second compound 0.316 µM, first compound 0.000316 µM): 108%; viability, T/C (second compound 0.316 µM, first compound 0.001 µM): 115%; viability, T/C (second compound 0.316 µM, first compound 0.00316 µM): 109%; viability, T/C (second compound 0.316 µM, first compound 0.01 µM): 97.4%; viability, T/C (second compound 1 µM, first compound 0.000316 µM): 117%; viability, T/C (second compound 1 µM, first compound 0.001 µM): 115%; viability, T/C (second compound 1 µM, first compound 0.00316 µM): 105%; viability, T/C (second compound 1 µM, first compound 0.01 µM): 95%; viability, T/C (second compound 3.16 µM, first compound 0.000316 µM): 95.3%; viability, T/C (second compound 3.16 µM, first compound 0.001 µM): 101%; viability, T/C (second compound 3.16 µM, first compound 0.00316 µM): 104%; viability, T/C (second compound 3.16 µM, first compound 0.01 µM): 101%; viability, T/C (second compound 10 µM, first compound 0.000316 µM): 99.8%; viability, T/C (second compound 10 µM, first compound 0.001 µM): 103%; viability, T/C (second compound 10 µM, first compound 0.00316 µM): 99.3%; viability, T/C (second compound 10 µM, first compound 0.01 µM): 88.1%
2 | COc1cc(C2c3cc4c(cc3C(OC3OC5COC(C)OC5C(O)C3O)C3COC(=O)C23)OCO4)cc(OC)c1O (stereo not given) + Cc1cncc(-c2nc(NCCc3c[nH]c4ccccc34)c3ncn(C(C)C)c3n2)c1 | 8.38 | 5.93 | 5.94 | 7 | > 10 | 97.9 | 97.9 | 94 | 107 | 95.6 | 103 | 96.7 | 92.5 | 83.7 | 76.8 | 87.4 | 72.4 | 62.2 | 47.4 | 88.8 | viability, T/C [16]: 75.9%; viability, T/C [17]: 65.3%; viability, T/C [18]: 39%; viability, T/C [19]: 92.8%; viability, T/C [20]: 78.8%; viability, T/C [21]: 59%; viability, T/C [22]: 42.9%; viability, T/C [23]: 89.2%; viability, T/C [24]: 72.4%; viability, T/C [25]: 64.7%; viability, T/C [26]: 43.7%; viability, T/C [27]: 78.2%; viability, T/C [28]: 73.8%; viability, T/C [29]: 62.9%; viability, T/C [30]: 50.6%
3 | Nc1ccn(C2OC(CO)C(O)C2(F)F)c(=O)n1 (stereo not given) + Cc1cncc(-c2nc(NCCc3c[nH]c4ccccc34)c3ncn(C(C)C)c3n2)c1 | < 0.0316 | < 0.0316 | < 0.0316 | < 0.0316 | 6.07 | 32.8 | 34.5 | 34.5 | 34.9 | 31.8 | 36.1 | 43.3 | 45.4 | 55.7 | 64.2 | 35.8 | 32.9 | 34.1 | 28.2 | 37 | viability, T/C [16]: 37.6%; viability, T/C [17]: 29.2%; viability, T/C [18]: 32.7%; viability, T/C [19]: 36%; viability, T/C [20]: 36.5%; viability, T/C [21]: 32.7%; viability, T/C [22]: 28.6%; viability, T/C [23]: 44.3%; viability, T/C [24]: 45.9%; viability, T/C [25]: 38.2%; viability, T/C [26]: 33%; viability, T/C [27]: 57%; viability, T/C [28]: 62.7%; viability, T/C [29]: 48.1%; viability, T/C [30]: 48.6%

From PubChem BioAssay AID1918999 (Molecular Pharmacology Branch, DTP, NCI, 2023)
